# Assay results as given in US4389412A, “Substituted cyclopropanecarboxylic acid esters and pesticidal compositions containing the same as active ingredient” (priority 1979, dated 1983).
# Like-named read-outs stand apart in the source and are kept apart here.
# Columns and labels:
# [1] = test system: rice stem borers (Chilo suppressalis Walker); experiment: Mortality test with rice stem borers by topical application method; assay type: in vivo; conditions: 24 h
# Method: Mortality test with rice stem borers (Chilo suppressalis Walker) by topical application method
# Using a microsyringe, 0.5 μl of the above solution was applied to the thoracic abdominal region of each final-instar larva of rice stem borer (Chilo suppressalis Walker). […] The test larvae were used in groups of 20 individuals each.
# [2] = test system: tobacco cutworms (Prodenia litura Fabricius); experiment: Mortality test with tobacco cutworms by topical application method; assay type: in vivo; conditions: 24 h
# Method: Mortality test with tobacco cutworms (Prodenia litura Fabricius) by topical application method
# Using a microsyringe, 0.5 μl of the above solution was dripped onto the thoracic adbominal region of each of 3-instar tobacco cutworm (Prodenia litura Fabricius) larvae. […] The test larvae were used in groups of 20 individuals each.
# [3] = test system: two-spotted spider mites (Tetranychus urticae Koch); experiment: Mortality test with two-spotted spider mites by spray application method; assay type: in vivo; conditions: 48 h, 200 ppm spray, two days, read-out: Percent decrease of population (%)
# Method: Mortality test with two-spotted spider mites (Tetranychus urticae Koch) by spray application method
# To a 5% aqueous solution of acetone was added dropwise a small amount of Tween-20 (polyethylene sorbitan monolaurate) as a surfactant. […] From 30 to 50 adult two-spotted spider mites (Tetranychus urticae Koch) were released on the leaves of kidney-bean plants in the dicotyledonous stage in a pot 9 cm in diameter, followed by a spray application of the above solution. The pot was kept in a constant-temperature chamber at 26° C. and two days later the mites were examined for deaths. The percent decrease of population was then calculated.
# [4] = Fish toxicity test with killifish; assay type: in vivo, Orizias latipes; conditions: water, killifish, 25±1° C., read-out: TLm (48 hrs.)
# Method: Fish toxicity test with killifish (Orizias latipes)
# An acetone solution of one of the test compounds as mentioned in Table 8 was prepared by adding said test compound to 15 ml of acetone. To 10 liters of water was added a predetermined amount of the above acetone solution and the mixture was stirred thoroughly to prepare an aqueous solution containing the test compound in a predetermined concentration. This was used as a test water. After the each test water was moderately aerated, ten killifishes (Orizias latipes) with a body weight of about 0.25 g and a body length of about 2.5 cm were released into said each test water which was maintained at 25±1° C. After 48 hours, the test fish was examined for death. The TLm (median tolerance limit, ppm) was determined.
# [5] = test system: green rice leafhoppers (Nephotettix cincticeps Uhler); experiment: Utility Example-2: spray on rice plants, green rice leafhoppers; assay type: in vivo; conditions: 7 ml/pot, 24 hours
# Method: A 30% emulsifiable concentrate of each of the cis- and trans-isomers and a 50:50 mixture of the cis- and trans-isomers of Compound (1) and Compound (2) as prepared by the procedure described in Formulation Example-1 was diluted with water to a concentration of 80 ppm as active compound. Rice plants 4 weeks after sowing in pots (each pot 6 cm in diameter, 7 seedlings) were sprayed with the above solution at the rate of 7 ml/pot and, after drying in the air, each pot was covered with a wire-mesh cage. Then, 20 female adult green rice leafhoppers (Nephotettix cincticeps Uhler) were released into the cage. The caged pots were kept in a constant-temperature chamber at 25° C. […] In all groups, the mortality values were not less than 90%.
# [6] = test system: small brown planthoppers (Laodelphax striatellus Fallen); experiment: Utility Example-3: spray on rice plants, small brown planthoppers; assay type: in vivo; conditions: 7 ml/pot, 24 hours
# Method: A 30% emulsifiable concentrate of each of the cis- and trans-isomers and a 50:50 mixture of the cis- and trans-isomers of Compound (1) and of Compound (2) as prepared by the procedure described in Formulation Example-1 was diluted with water to a concentration of 80 ppm as active compound. Rice plants 4 weeks after sowing in pots (each pot 6 cm in diameter, 7 seedlings) were sprayed with the above diluted solution at the rate of 7 ml/pot and, after drying in the air, each pot was covered with a wire-mesh cage. Then, 30 adult small brown planthoppers (Laodelphax striatellus Fallen) were released into the cage. The pots were kept in a constant-temperature chamber at 25° C. […] In all groups, the mortality was not less than 90%.
# [7] = test system: green rice leafhoppers (Nephotettix cincticeps Uhler); experiment: Utility Example-4: 0.2% dust on rice seedlings, green rice leafhoppers; assay type: in vivo; conditions: 5 kg per 10 ares, 24 hours, resistant to organophosphorus and carbamate pesticides
# Excerpt: (§1) A 0.2% dust preparation of each of the cis- and trans-isomers and a 50:50 mixture of the cis- and trans-isomers of Compound (1) and of Compound (2) as prepared by the procedure described in Formulation Example-3 was applied to rice seedlings by means of a bell-jar duster at the rate of 5 kg per 10 ares. […] In all cases, the mortality was not less than 90%.
# [8] = test system: green rice leafhoppers (Nephotettix cincticeps); experiment: Utility Example-6: 0.5% dust on rice seedlings, green rice leafhoppers; assay type: in vivo; conditions: 1 kg per 10 ares, 24 hours, resistant to organophosphorus and carbamate pesticides
# Excerpt: as §1, with “A 0.5%” for “A 0.2%”, “Formulation Example-4” for “Formulation Example-3”, “of 1” for “of 5”, “ares. Then, 30 green rice leafhoppers (Nephotettix cincticeps) resistant to organophosphorus and carbamate pesticides were released.” for “ares.”
# [9] = test system: brown planthoppers (Nilaparvata lugens); experiment: Utility Example-7: 0.5% dust on rice seedlings, brown planthoppers; assay type: in vivo; conditions: 1 kg per 10 ares, 24 hours
# Excerpt: as §1, with “A 0.5%” for “A 0.2%”, “Formulation Example-4” for “Formulation Example-3”, “rice seedlings, on which 30 adult brown planthoppers (Nilaparvata lugens) were released,” for “rice seedlings”, “of 1” for “of 5”
# [10] = test system: houseflies (Musca domestica); experiment: Mortality test with houseflies by topical application method; conditions: 24 h
# Method: Mortality test with houseflies (Musca domestica) by topical application method
# Each of the compounds according to this invention and the control compounds (Table 2) was accurately weighted and a 0.1% solution of each sample in acetone was prepared. Female adult houseflies (Musca domestica) resistant to organophosphorus pesticides, were anesthetized with ether and 0.5 μl or 1.0 μl of the above solution was micropipetted onto the prothoracic dorsal region of each insect. The insects were then put in a high-walled dish together with feed and the dish was covered with a wire-mesh cover and kept at a temperature of 25° C. The test insects were used in groups of 30 individuals each. After 24 hours the insects were examined for deaths and the percent mortality was calculated.
# [11] = test system: green rice leafhoppers (Nephotettix cincticeps Uhler); experiment: Mortality test with green rice leafhoppers by topical application method; conditions: Nephotettix cincticeps, in Oryza sativa, 24 h
# Method: Mortality test with green rice leafhoppers (Nephotettix cincticeps Uhler) by topical application method
# Then, the insects were kept at 25° C. with access to rice plant seedlings. The insects were used in groups of 15 individuals each.
# [12] = Fish toxicity test with guppies; assay type: in vivo, Lebistes reticulatus; conditions: guppy, water, guppies, 20° C., read-out: TLm (48 hrs.)
# Method: (§2) Fish toxicity test with guppies (Lebistes reticulatus)
# (§3) To 5 liters of water were added 250 mg of Sorpol SM-200 (trademark, Toho Chemical Co., Ltd.) as a surfactant and 2.5 ml of an acetone solution containing one of the test compounds in a predetermined concentration. The mixture was stirred thoroughly to prepare a test water. Ten female guppies (Lebistes reticulatus) of from 3 to 4 months of age were released into the test water which was maintained at 20° C. and the TLm (median tolerance limit, ppm) was determined.
# [13] = test system: guppies (Lebistes reticulatus); experiment: Fish toxicity test with guppies; assay type: in vivo; conditions: Table 1; 48 hrs.
# Method: as §2, §3
# [14] = Fish toxicity test with carp; assay type: in vivo, Cyprinus carpio L; conditions: carp, water, 48 hrs., 21±1° C.; read-out: TLm, Carp (48 hrs.)
# Method: Fish toxicity test with carp (Cyprinus carpio L)
# An acetone solution of one of the test compounds as mentioned in Table 10 and Tween-20 (the same surfactant as mentioned hereinbefore) was prepared. To 50 liters of water (30 cm deep) in a glass tank was added the above acetone solution. The mixture was stirred thoroughly to prepare an aqueous solution containing the test compound in a predetermined concentration. This was used as a test water. Five carps (Cyprinus carpio L) with a body weight of about 6 g and a body length of about 6 cm were released into each test water which was maintained at 21±1° C. After 48 hours, the test fish was examined for death. The TLm (median tolerance limit, ppm) was determined. The test water was moderately aerated.
# [15] = test system: carp and water flea; experiment: Fish toxicity ranking according to Japanese regulations; parameters: species or system Cyprinus carpio L; Daphnia pulex; conditions: from TLm for carp and water flea
# Method: The above ranking with symbols A, B and C were determined according to Japanese regulations relative to application of agricultural chemicals, and these symbols are defined as follows: […]
# A: TLm (48 hrs.) value >10 ppm for carp and TLm (3 hrs.) value >0.5 ppm for water flea, wherein toxicity to fishes is not observed by usual application.
# B: TLm (48 hrs.) value 10-0.5 ppm for carp; or TLm (48 hrs.) value >10 ppm for carp and TLm (3 hrs.) value <0.5 ppm for water flea, wherein appreciable toxicity to fishes is not observed by usual application but may be observed when applied to wide area at one time.
# C: TLm (48 hrs.) value <0.5 ppm for carp, wherein toxicity to fishes is so strongly observed by usual application that both the application method and application area are strictly restricted.
# [16] = Acute toxicity test in rat by the oral route; assay type: in vivo; conditions: in vivo, male rat, in olive oil, after 7 days
# Excerpt: Acute toxicity test in rat by the oral route
# [17] = test system: brown planthoppers (Nilaparvata lugens Stal); experiment: Utility Example-1: LC50 on adult brown planthoppers on dipped rice plants; assay type: in vivo; conditions: Nilaparvata lugens, 24 h, 25° C., read-out: Pesticidal activity LC50
# Method: A 1% emulsifiable concentrate of each test compound as prepared by the procedure described in Formulation Example 2 was diluted with water to prepare a test solution of predetermined concentration.
# Rice plants, 4 weeks after sowing (cultivated in a pot 6 cm in diameter, 7 seedlings) were dipped in the above solution and after allowing them to dry in the air, the pot was covered with a wire-mesh cage. Then, 30 adult brown planthoppers (Nilaparvata lugens Stal) were released into the cage and the pot was kept in a constant-temperature chamber at 25° C.
# [18] = Fish toxicity safety factor (TLm divided by maximum concentration in cover water); parameters: species or system carp; conditions: in vivo, TLm / maximum concentration in cover water at LC50 application (100 l per 10 ares, 5 cm depth)
# Method: To further confirm the low toxicity to fish and high pesticidal activity of Compounds (1) and (2) according to this invention as evidenced by the fish toxicity tests with carps and the above tests, fish toxicity safety factors were calculated from the fish toxicity and pesticidal test data. These fish toxicity safety factors are indicators of safety to fish inhabiting a paddy field to which Compounds (1) and (2) may be actually applied for pest control purposes.
# It is first assumed that such a pesticidal solution would normally be applied at the rate of 100 l per 10 ares of paddy field. It is also assumed that a solution (100 l) corresponding to the LC50 of the compounds would be applied to 10 ares of a paddy field carrying a cover water with a depth of 5 cm above ground surface and that all the solution would then find its way into the cover water. The expected maximum concentration of the compound in the cover water is then calculated. The fish toxicity safety factor of a pesticidal compound is defined as the value obtained by dividing the TLm (ppm) of the particular compound by the maximum concentration of the compound in cover water. The meaning of the value of the fish toxicity safety factor being one (1) is that the maximum concentration of the particular compound in cover water corresponds to the TLm of said compound. It is understood that when the pesticidal compound having a fish toxicity safety factor value of less than one (1) is applied to a paddy field, it has a risk of destroying the fish inhabiting there, and that the higher the safety factor value, the higher is the safety of the compound to fish.
# This fish toxicity safety factor will now be explained in further detailed by taking the trans-isomer of Compound (2) of this invention as an example.
# On the other hand, the toxicity to fish of this compound is TLm >10 ppm. Therefore, by dividing the TLm (i.e. >10 ppm) by the above cover water maximum concentration (i.e. 0.36 ppm), we obtain a fish toxicity safety factor of >28. Thus, the concentration of the trans-isomerof Compound (2) which kills 50% of pests corresponds to less than 1/28 of the concentration of the same isomer which kills 50% of fish. In other words, this means that the trans-isomer of Compound (2) is extremely safe to fish.
compound,measurement,setting,value
"CC1(C)[C@H](C=C(Cl)Cl)[C@@H]1C(=O)OCc1cccc(Oc2ccc(Cl)cc2)c1 (relative stereo) [Compound (1) cis-, 3-(4-chlorophenoxy)benzyl cis-2,2-dimethyl-3-(2,2-dichlorovinyl)cyclopropanecarboxylate]",mortality at 1 µg/larva,[1],100%
same,mortality at 10 µg/larva,[1],100%
same,mortality at 0.0001 mg,[2],100%
same,mortality at 200 ppm,[3],100%
same,LC50 at 48 h,[4],> 10 µg/mL
same,mortality at 80 ppm,[5],≥ 90%
same,mortality at 80 ppm,[6],≥ 90%
same,mortality,[7],not less than 90%
same,mortality,[8],not less than 90%
same,mortality,[9],not less than 90%
same,mortality at 0.5 µg/female,[10],100%
same,mortality at 1 µg/female,[10],100%
"CC1(C)C(C=C(Cl)Cl)C1C(=O)OC(C#N)c1cccc(Oc2ccccc2)c1 (stereo not shown) [Compound (C), Cypermethrin]",mortality at 0.01 µg/female,[11],100%
same,mortality at 0.1 µg/female,[11],100%
same,mortality at 1 µg/female,[11],100%
same,mortality at 10 ng,"[11]; read-out: Pesticidal effect, green rice leafhopper",100%
same,mortality at 1 µg/larva,[1],95%
same,mortality at 10 µg/larva,[1],100%
same,mortality at 0.001 mg,"[1]; read-out: Pesticidal effect, rice stem borer",95%
same,mortality at 0.0001 mg,"[2]; read-out: Pesticidal effect, tobacco cutworm",100%
same,LC50 at 48 h,[4],0.026 µg/mL
same,LC50 at 48 h,[12],< 0.5 µg/mL
same,"Toxicity to fish TLm, guppy",[13],< 0.5 ppm
same,LC50 at 48 h,[14],0.0045 µg/mL
same,Ranking,[15],"C (TLm (48 hrs.) value <0.5 ppm for carp, wherein toxicity to fishes is so strongly observed by usual application that both the application method and application area are strictly restricted.)"
same,LD50 at 168 h,[16],310 mg/kg
same,LC50,[17],210 µg/mL
same,selectivity ratio,[18],0.01
same,mortality at 0.5 µg/female,[10],100%
same,mortality at 1 µg/female,[10],100%
same,mortality at 0.001 mg,"[10]; read-out: Pesticidal effect, housefly",100%
